# Data taken from US4956355A, “Agents for the arrest and therapy of retroviral infections” (Colthurst Limited, priority 1987, dated 1990).
# Like-named read-outs stand apart in the source and are kept apart here.
# Experiments:
# [1] = tested on: HIV in activated peripheral blood lymphocytes; assay: Inhibition of HIV mediated cytopathic effects / p24 antigen production in activated peripheral blood lymphocytes; assay type: cell-based; details: for p24 antigen production: activated PBL, about 7 days after infection, FIG. 2
# Method: 1. […] All three viral strains were grown in the Tissue Culture Laboratory of the AIDS Activity Division of San Francisco General Hospital where titers of […] infectious units per ml were routinely achieved.
# 4. HIV soluble p24 antigen detection: Soluble p24 antigens were measured with the Abbott HIV antigen detection system.
# (b) Although the VB T lymphoma cell line behaves in a similar manner to peripheral blood CD4 positive T lymphocytes in regard to HIV induced cytopathic effects, the above described experiments were performed on phytohemagglutinin (PHA) activated lymphocytes to determine whether lymphocytes are more or less sensitive to Compounds A and B than is the VB cell line. In this assay system, at the time that multinucleated giant cells appeared within infected lymphocyte cultures, the supernatants were analyzed for the presence of HIV p24 antigens and were titered on indicator VB lymphoma cells to determine the titer of infectious virus present at each point.
# To test whether the effects of compounds A and B on acute VB T lymphoma infection would be mimicked by activated peripheral blood lymphocytes (PBC), HIV at a multiplicity of infection of one was added to lymphocytes that had been activated for 48 hours with 2 μg per ml of PHA. After the initial infection for one hour, the activated lymphocytes were washed and resuspended for the one week of culture. Multinucleated giant cells began to form approximately 7 days after the initial infection, at which time the culture supernatants were harvested and tested for the presence of HIV p24 antigens. The accumulation of HIV p24 antigens in the supernatant is representative of production of HIV from infected cells.
# [2] = tested on: HIV in chronically infected human macrophages; assay: Antiviral testing of chronically HIV infected macrophages; assay type: cell-based
# Text: 2. Source of cells: The VB cell line used in Example 1 is a T lymphoma cell line that is highly susceptible to infection with HIV, and expresses high levels of cell surface CD4 molecules. This cell line forms syncytia within two days after infection with all strains of HIV tested to date. […] This is used to quantitate infection in the absence of syncytial formation, infection being quantitated by immunofluorescence assays. The HXB/H9 cell line (Example 6) is an H9 cell population that chronically produces the HTLV-IIIB strain of HIV and is utilised in experiments testing antiviral effects on chronically infected cell lines. Human macrophages were prepared from peripheral blood mononuclear cells either obtained from the blood bank as a buffy coat, or as a leukophoresis preparation. Crowe et al. supra have devised an assay system that allows quantitation of HIV infection, and inhibition of infection using immunocytofluorographic analysis. In order to quantitate HIV infection in macrophages, they grow macrophages in Teflon (Trade Mark) culture vessels which maintain macrophages in suspension in vitro culture for up to six months. Cell surface and cytoplasmic immunofluorescence staining is then performed to quantitate antigens in macrophages by flow cytometry.
# 3. Flow cytometry: An Ortho Cytofluorgraf II-S (Trade Mark) that has a biohazard containment flow cell was used for analysis of HIV infected samples. HIV p24 antigens were detected utilizing a mouse monoclonal anti-p24 (du Pont), and mouse antibodies were identified utilizing an FITC conjugated goat anti-mouse IgG.
# 6. Analysis of chronically infected cells: To determine whether compounds A and B are effective at inhibiting HIV expression in macrophages and chronically infected T cells, the following experiments were performed. The chronically infected T cell line, HXB/H9 was exposed to various concentrations of drug for four days in vitro. At four days, the HXB cells were assayed for the presence of p24 intracytoplasmically, and supernatants were assayed for the presence of infectious virus as described above.
# Because macrophages can be infected and produce HIV for very long periods of time without substantial loss of viability, chronically infected cells were tested, specifically a population that was between 30 and 50% HIV antigen positive, for inhibition of cytoplasmic HIV p24 antigen production. FIG. 5 indicates the results of three separate experiments carried out.
# [3] = tested on: peripheral blood lymphocytes; assay: Nonspecific toxicity to peripheral blood lymphocytes; assay type: cell-based, human
# [4] = tested on: normal human macrophages; assay: Nonspecific toxicity to normal human macrophages; assay type: cell-based; details: 10^-4 to 10^-8 molar
# Method: 7. Analysis of nonspecific toxicity to the target cells with Compounds A and B. The VB, H9 and HXB cell lines were exposed to different concentrations of Compounds A and B as were normal human macrophages for the length of time the drug was in contact with each cell line as described in the above assays. Cell numbers were counted, and live versus dead were determined by Trypan blue exclusion assays. These tests were required to determine a therapeutic index between nonspecific toxic effects on the described cells, compared with potential effective antiviral effects in vitro (Example 6).
# [5] = Safety of dehydroepiandrosterone in subjects; assay type: in vivo, human
# Method: Twelve patients all of whom were sero-positive for HIV and had been diagnosed as suffering from AIDS were treated with DHEA for up to six months. The DHEA was administered in the form of hard gelatin capsules containing 100 mg of DHEA and at a rate of 100 mg to 600 mg per day. The vast majority being on 500 mg per day in divided doses. The patients were all homosexual or bisexual males with an average age of 34.5 years and an average weight of 69.6 kg.
# [6] = tested on: human peripheral blood mononuclear (PBM) cells infected with Epstein-Barr virus; details: cited from earlier work
# [7] = tested on: glucose-6-phosphate dehydrogenase; details: cited from earlier work
# [8] = tested on: permeability of membranes; details: cited from earlier work
# [9] = tested on: complement activation; details: cited from earlier work
# [10] = murine model of SLE; cited from earlier work
smiles,measurement,setting,value
"C[C@]12CC[C@H](O)CC1=CC[C@@H]1[C@@H]2CC[C@]2(C)C(=O)CC[C@@H]12 [A, dehydroepiandrosterone]",p24 antigen production,[1]; 10^-4 molar,moderately inhibited
same,p24 antigen production,[1]; 10^-5 molar,slightly less inhibited
same,"antiviral effects in comparison with AZT, lymphocytes",[1]; acute infection,inferior
same,antiviral effect in acute infection studies of lymphocytes,"[1]; acute infection, conclusions",mild antiviral effect
same,inhibition compared with inhibition of acute infection of macrophages,"[2]; 10^-4 and 10^-5 molar, FIG. 5 vs FIG. 4",somewhat less than the inhibition of acute infection of macrophages
same,inhibition of cytoplasmic HIV p24 antigen production in chronically infected macrophages,"[2]; both 10^-4 and 10^-5 molar, three experiments, FIG. 5",some inhibition
same,toxicity with the PBL cultures,[3]; 10^-4 and 10^-5 molar,No appreciable toxicity
same,toxicity to peripheral blood lymphocytes,[3]; 10^-4 to 10^-8 molar,nor was there appreciable toxicity
same,toxicity in normal macrophages,[4],not appreciable toxicity
same,toxicity in treatment of patients infected with HIV,[5]; general statement,virtual absence of toxicity
same,"adverse physical, biochemical or hematological effects","[5]; twelve subjects, daily doses of up to 600 mg for up to six months","complete lack of adverse physical, biochemical or hematological effects"
same,concentrations reducing colony forming ability,[6],10 to 100 µM
same,effect on glucose-6-phosphate dehydrogenase,[7],inhibits glucose-6-phosphate dehydrogenase
same,effect on glucose-6-phosphate dehydrogenase,[7]; listed as DHEA,inhibitory effect
same,effect on permeability of membranes,[8],inhibitory effect
same,complement activation,[9],inhibits complement activation
same,autoantibody formation,[10],prevents autoantibody formation
